# According to PMC8325119, “A Novel Class of Functionalized Synthetic Fluoroquinolones with Dual Antiproliferative - Antimicrobial Capacities” (Asian Pacific Journal of Cancer Prevention : APJCP, 2021):
# Where “and” joins values, the source holds several entries; their conditions need not be identical. Identical values can stand only once. Like-named read-outs stand apart in the source and are kept apart here.
# Assays:
# [1] = tested on: A549 cell line; experiment: SRB cytotoxicity assay, A549 lung cancer cell line
# Procedure: (§1) All reagents and chemicals of analytical grade were obtained from Sigma (Dorset, UK); unless stated otherwise. All chemicals, reagents and solvents (of analytical grade) were used directly without further purification. MCF7 cell line ATCC® HTB-22™, T47D cell line ATCC® HTB-133™, K562 cell line ATCC® CCL-243™, Panc1 cell line ATCC® CRL-1469™. A375.S2 cell line ATCC® CRL-1872™, A549 cell line ATCC® CCL-185™, HELA cell line ATCC® CCL-2™ were cultured in Dulbecco’s modified eagle’s medium (DMEM). (DMEM) containing foetal bovine serum (FBS) (Bio Whittaker, Verviers, Belgium), 4-(2-hydroxyethyl)-1-piperazine ethane sulfonic acid (HEPES) Buffer, L-glutamine, gentamicin, penicillin, and streptomycin sulphate (Sigma, St. Luis, MO, USA), trypsin, trypan blue, Ciprofloxacin HCl from Aarti drugs Ltd/India, was a kind gift from Pharma International Company- Amman; Fluconazole from Neopharma, United Arab Emirates, a kind gift from Pharmaceutical Research Unit, Amman; Trypon soya agar (TSA), trypon soya broth (TSB), sabouraud dextrose agar (SDA) were obtained from Liofilchem (Italy) or Oxoid LTD (Basingstoke, England), they were reconstituted and sterilized by autoclave at 121 °C for 15 min.
# (§2) The cytotoxicity measurements were determined using Sulforhodamine B (SRB) colorimetric assay for cytotoxicity screening. The mechanism of reduction of cell viability was adopted as described previously (Arabiyat et al., 2016a,b; 2017; Alabsi et al., 2018; Jumah, 2018; AlShahrabi et al., 2020). Human periodontal ligament fibroblasts (PDL) are a primary normal cell culture for verification of selective cytotoxicity. […] Selectivity ratio as indicative factor of the safety of compounds was calculated by dividing IC50 of tested compound on normal fibroblasts by IC50 of the same compound on specific pathological cell line (Hoffman et al., 2011).
# [2] = tested on: A375.S2 cell line; experiment: SRB cytotoxicity assay, A375.S2 melanoma cell line
# Procedure: as §1, §2
# [3] = tested on: MCF7 cell line; experiment: SRB cytotoxicity assay, MCF7 breast cancer cell line
# Procedure: as §1, §2
# [4] = tested on: HELA cell line; experiment: SRB cytotoxicity assay, HELA cervical cancer cell line
# Procedure: as §1, §2
# [5] = tested on: K562 cell line; experiment: SRB cytotoxicity assay, K562 leukaemia cell line
# Procedure: as §1, §2
# [6] = tested on: PANC 1 cell line; experiment: SRB cytotoxicity assay, PANC 1 pancreatic cancer cell line
# Procedure: as §1, §2
# [7] = tested on: T47D cell line; experiment: cells; details: 72 h; for IC50: read-out: Cytotoxicity IC50 value, T47D cell line; for Cytotoxicity IC50 value, T47D cell line: value in brackets
# Procedure: as §1, §2
# [8] = tested on: PDL Fibroblasts; experiment: SRB cytotoxicity on normal periodontal ligament fibroblasts, selective cytotoxicity; type: cell-based, Human; details: for IC50 / IC50 value PDL Fibroblasts: normal fibroblasts, SRB, 72 h, mean ± SD; for Selectivity index SI (K562): IC50 on PDL fibroblasts divided by IC50 on K562
# Procedure: as §2
# [9] = Homo sapiens, A549, 72 h, read-out: Cytotoxicity IC50 value, A549 cell line
# [10] = Homo sapiens, A375-S2, 72 h, read-out: Cytotoxicity IC50 value, A375.S2 cell line
# [11] = Homo sapiens, MCF7, 72 h, read-out: Cytotoxicity IC50 value, MCF7 cell line
# [12] = Homo sapiens, HeLa, 72 h, read-out: Cytotoxicity IC50 value, HELA cell line, SRB, 72 h, 0.1-200 μg/mL range, mean ± SD, value in brackets
# [13] = Homo sapiens, HeLa, 72 h, read-out: Cytotoxicity IC50 value, HELA cell line, SRB, 72 h, 0.1-200 μg/mL range, mean ± SD, NI = lack of cytotoxicity in range
# [14] = Homo sapiens, K562, 72 h, read-out: Cytotoxicity IC50 value, K562 cell line, SRB, 72 h, 0.1-200 μg/mL range, mean ± SD, value in brackets
# [15] = Homo sapiens, K562, 72 h, read-out: Cytotoxicity IC50 value, K562 cell line, SRB, 72 h, 0.1-200 μg/mL range, mean ± SD, NI = lack of cytotoxicity in range
# [16] = Homo sapiens, PANC-1, 72 h, read-out: Cytotoxicity IC50 value, PANC 1 cell line
# [17] = Homo sapiens, Fibroblast, 0.1-200 μg/mL range, NI = lack of cytotoxicity in range
# [18] = Homo sapiens, Fibroblast, value in brackets
# [19] = 0.1-200 μg/mL range, NI = lack of cytotoxicity in range
# [20] = SRB, 0.1-200 μg/mL range, mean ± SD
# [21] = SRB, 0.1-200 μg/mL range, mean ± SD, NI = lack of cytotoxicity in range
Structure (SMILES),"IC50 [1, 9]","IC50 [2, 10]","IC50 [3, 11]","IC50 [4, 12]","IC50 [4, 13]","IC50 [5, 14]","IC50 [5, 15]","IC50 [6, 16]","IC50 ([7]; Homo sapiens, T47D)","IC50 [8, 17]","IC50 [8, 18]",Selectivity index SI (K562) [8],"IC50 [8, 19]",IC50 value PDL Fibroblasts ([8]; value in brackets),also measured
"CCn1cc(C(=O)O)c(=O)c2cc(F)c(Nc3ccccc3OC)c([N+](=O)[O-])c21 [11a, 1-ethyl-6-fluoro-7-(2-methoxy-phenylamino)-8-nitro-4-oxo-1,4-dihydro-quinoline-3 carboxylic acid]",96.8 µM and 8.84 µg/mL,1.02 mM and 411 µg/mL,67.8 µM and 27.2 µg/mL,41.4 µg/mL,103 ± 7.66 µM,6.38 µg/mL,15.9 ± 1.75 µM,187 µM and 75.2 µg/mL,22.8 µM and 9.16 µg/mL,156 ± 11.7 µM,62.7 µg/mL,9.83,–,–,–
"COc1ccc(-n2nnc3c4c(cc(F)c32)c(=O)c(C(=O)O)cn4C2CC2)cc1 [5c, 9-cyclopropyl-4-fluoro-3-(4-methoxy-phenyl)-6-oxo-6,9-dihydro-3H-[1,2, and 3] triazolo [4,5-h] quinoline-7-carboxylic acid]",427 µM and 168 µg/mL,453 µM and 178 µg/mL,> 200 µg/mL,179 µg/mL,454 ± 19.1 µM,97.4 µg/mL,248 ± 44.6 µM,> 200 µg/mL,398 µM and 156 µg/mL,496 ± 52.5 µM,195 µg/mL,2.00,–,–,–
"COc1ccc(Nc2c(F)cc3c(=O)c(C(=O)O)cn(C4CC4)c3c2[N+](=O)[O-])cc1 [3c, 1-cyclopropyl-6-fluoro-7-(4-methoxy-phenylamino)-8-nitro-4-oxo-1,4-dihydro-quinoline-3-carboxylic acid]",64.4 µM and 26.6 µg/mL,274 µM and 113 µg/mL,54.2 µM and 22.4 µg/mL,81.7 µg/mL,198 ± 11.1 µM,32.7 µg/mL,79.1 ± 8.69 µM,40.7 µM and 16.8 µg/mL,66 µM and 27.3 µg/mL,107 ± 5.61 µM,44.3 µg/mL,–,–,–,"Cytotoxicity IC50 value, K562 cell line ([5]; SRB, 72 h, 0.1-200 μg/mL range, mean ± SD, value in brackets): 16.83 ± 0.15 µg/mL; Selectivity index SI (PANC 1) ([8]; IC50 on PDL fibroblasts divided by IC50 on PANC 1): 2.63"
"N.N.[Cl][Pt][Cl] [Cisplatin, cisplatin, reference compound]",–,–,–,–,–,–,–,–,–,–,–,–,0.71 ± 0.13 µM,0.21 ± 0.04 µg/mL,–
"CCn1cc(C(=O)O)c(=O)c2cc(F)c3c(nnn3-c3cccc(OC)c3)c21 [13b, 9-ethyl-4-fluoro-3-(3-methoxy-phenyl)-6-oxo-6,9-dihydro-3H-[1,2, and 3] triazolo [4,5-h] quinoline-7-carboxylic acid]",–,–,–,–,–,–,–,–,–,–,–,–,332 ± 14.6 µM,126.55 ± 5.58 µg/mL,"Cytotoxicity IC50 value, A549 cell line [1]: 95.87 ± 9.20 µg/mL; IC50 [1]: 251 ± 24.1 µM; Cytotoxicity IC50 value, A375.S2 cell line [2]: 38.96 ± 3.39 µg/mL; IC50 [2]: 102 ± 8.88 µM; Cytotoxicity IC50 value, MCF7 cell line [3]: 159.18 ± 8.68 µg/mL; IC50 [3]: 417 ± 22.8 µM; Cytotoxicity IC50 value, HELA cell line [4]: 15.99 ± 1.35 µg/mL; IC50 [4]: 41.9 ± 3.55 µM; Cytotoxicity IC50 value, K562 cell line [5]: 22.13 ± 0.85 µg/mL; IC50 [5]: 58 ± 2.22 µM; Cytotoxicity IC50 value, T47D cell line [7, 20]: 44.68 ± 3.49 µg/mL; IC50 [7, 21]: 117 ± 9.15 µM; Selectivity index SI (HELA) ([8]; IC50 on PDL fibroblasts divided by IC50 on HELA): 7.19"
"CCn1cc(C(=O)O)c(=O)c2cc(F)c3c(nnn3-c3ccccc3OC)c21 [13a, 9-ethyl-4-fluoro-3-(2-methoxy-phenyl)-6-oxo-6,9-dihydro-3H-[1,2, and 3] triazolo [4,5-h] quinoline-7-carboxylic acid]",–,–,–,–,–,–,–,–,–,–,–,40.01,276 ± 20.7 µM,105.13 ± 7.90 µg/mL,"Cytotoxicity IC50 value, A549 cell line [1]: 94.32 ± 1.44 µg/mL; IC50 [1]: 247 ± 3.78 µM; Cytotoxicity IC50 value, A375.S2 cell line [2]: 203.87 ± 4.80 µg/mL; IC50 [2]: 535 ± 12.6 µM; Cytotoxicity IC50 value, HELA cell line [4]: 20.06 ± 2.62 µg/mL; IC50 [4]: 52.6 ± 6.86 µM; Cytotoxicity IC50 value, K562 cell line [5]: 2.66 ± 0.49 µg/mL; IC50 [5]: 6.98 ± 1.28 µM; Cytotoxicity IC50 value, PANC 1 cell line [6]: 118.30 ± 6.71 µg/mL; IC50 [6]: 310 ± 17.6 µM; Cytotoxicity IC50 value, T47D cell line [7, 20]: 21.93 ± 0.87 µg/mL; IC50 [7, 21]: 57.5 ± 2.27 µM"
"CCn1cc(C(=O)O)c(=O)c2cc(F)c(Nc3ccc(OC)cc3OC)c(N)c21 [12c, 8-amino-7-(2,4-dimethoxy-phenylamino)-1-ethyl-6-fluoro-4-oxo-1,4-dihydro-quinoline-3-carboxylic acid]",40.9 µM and 16.4 µg/mL,67.3 µM and 27 µg/mL,101 µM and 40.4 µg/mL,15.6 µg/mL,38.8 ± 1.91 µM,10.6 µg/mL,26.4 ± 4.54 µM,93.5 µM and 37.5 µg/mL,–,43.8 ± 6.21 µM,17.6 µg/mL,1.65,–,–,–
"COc1ccccc1Nc1c(F)cc2c(=O)c(C(=O)O)cn(C3CC3)c2c1[N+](=O)[O-] [3a, 1-cyclopropyl-6-fluoro-7-(2-methoxy-phenylamino)-8-nitro-4-oxo-1,4-dihydro-quinoline-3-carboxylic acid]",–,–,–,–,–,–,–,–,> 200 µg/mL,184 ± 3.69 µM,76 µg/mL,–,–,–,Selectivity index SI (MCF7) ([8]; IC50 on PDL fibroblasts divided by IC50 on MCF7): 2.71
CCOC(=O)c1cn(C2CC2)c2c([N+](=O)[O-])c(Cl)c(F)cc2c1=O [1E],447 µM and 200 µg/mL,271 µM and 121 µg/mL,220 µM and 71.9 µg/mL,43.3 µg/mL,133 ± 4.78 µM,32.4 µg/mL,99.1 ± 7.5 µM,79.3 µM and 25.9 µg/mL,108 µM and 35.4 µg/mL,–,–,–,–,–,–
